# Measurements from patent US12486267B2, “Imidazo[1,2-A]pyridine and [1,2,4]triazolo[1,5-A]pyridine derivatives as TLR9 inhibitors for the treatment of fibrosis” (BRISTOL-MYERS SQUIBB COMPANY, priority 2020, dated 2025).
# Legend:
# Assay type in all cases: cell-based
# human TLR8 = target: T1, human TLR8 (Homo sapiens, UniProt Q9NR97); assay: TLR8 inhibition reporter assay (HEK-Blue cells, SEAP reporter); conditions: HEK-Blue cells overexpressing human TLR8; stimulated with R848 15.9 μM; 22 hour incubation; SEAP readout
# T1 sequence (Q9NR97 27-1041): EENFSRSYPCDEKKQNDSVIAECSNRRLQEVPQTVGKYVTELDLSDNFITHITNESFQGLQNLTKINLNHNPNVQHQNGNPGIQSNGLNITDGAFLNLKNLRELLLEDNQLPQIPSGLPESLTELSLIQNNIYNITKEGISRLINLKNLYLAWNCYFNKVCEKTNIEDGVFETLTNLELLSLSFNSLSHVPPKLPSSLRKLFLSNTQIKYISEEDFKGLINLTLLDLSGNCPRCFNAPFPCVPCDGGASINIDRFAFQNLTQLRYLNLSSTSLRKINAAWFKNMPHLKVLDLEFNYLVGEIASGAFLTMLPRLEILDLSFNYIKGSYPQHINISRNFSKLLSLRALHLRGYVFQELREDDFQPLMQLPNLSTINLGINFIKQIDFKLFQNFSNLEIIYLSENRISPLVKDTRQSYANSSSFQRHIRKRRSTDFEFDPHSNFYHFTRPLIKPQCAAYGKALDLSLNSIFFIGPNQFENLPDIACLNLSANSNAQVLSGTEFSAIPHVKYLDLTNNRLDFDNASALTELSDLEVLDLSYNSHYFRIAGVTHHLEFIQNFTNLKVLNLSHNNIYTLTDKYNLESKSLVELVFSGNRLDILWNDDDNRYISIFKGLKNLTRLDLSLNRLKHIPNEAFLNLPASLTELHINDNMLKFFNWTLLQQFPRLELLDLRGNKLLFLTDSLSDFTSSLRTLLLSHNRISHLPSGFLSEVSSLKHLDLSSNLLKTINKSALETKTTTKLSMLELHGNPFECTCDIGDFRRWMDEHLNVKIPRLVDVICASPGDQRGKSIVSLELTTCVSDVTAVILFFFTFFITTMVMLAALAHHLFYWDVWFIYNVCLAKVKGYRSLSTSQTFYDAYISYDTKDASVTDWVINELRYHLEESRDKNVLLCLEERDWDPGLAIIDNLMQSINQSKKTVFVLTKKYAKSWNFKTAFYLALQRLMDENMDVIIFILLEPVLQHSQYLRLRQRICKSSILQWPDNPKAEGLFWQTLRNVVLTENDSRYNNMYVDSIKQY
# Procedure, shortened: (§1)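 HEK-Blue cells with an NF-κB/AP-1-driven SEAP reporter were pre-treated 30 min at room temperature with compound (0.05 nM–50 μM), then stimulated with gardiquimod 7.5 μM (TLR7), R848 15.9 μM (TLR8) or ODN2006 5 nM (TLR9). After 22 h at 37 °C, SEAP was read; % inhibition was referenced to agonist+DMSO and known-inhibitor wells.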
# human TLR7 = target: T2, human TLR7 (Homo sapiens, UniProt Q9NYK1); assay: TLR7 inhibition reporter assay (HEK-Blue cells, SEAP reporter); conditions: HEK-Blue cells overexpressing human TLR7; stimulated with gardiquimod 7.5 μM; 22 hour incubation; SEAP readout
# T2 sequence (Q9NYK1 27-1049): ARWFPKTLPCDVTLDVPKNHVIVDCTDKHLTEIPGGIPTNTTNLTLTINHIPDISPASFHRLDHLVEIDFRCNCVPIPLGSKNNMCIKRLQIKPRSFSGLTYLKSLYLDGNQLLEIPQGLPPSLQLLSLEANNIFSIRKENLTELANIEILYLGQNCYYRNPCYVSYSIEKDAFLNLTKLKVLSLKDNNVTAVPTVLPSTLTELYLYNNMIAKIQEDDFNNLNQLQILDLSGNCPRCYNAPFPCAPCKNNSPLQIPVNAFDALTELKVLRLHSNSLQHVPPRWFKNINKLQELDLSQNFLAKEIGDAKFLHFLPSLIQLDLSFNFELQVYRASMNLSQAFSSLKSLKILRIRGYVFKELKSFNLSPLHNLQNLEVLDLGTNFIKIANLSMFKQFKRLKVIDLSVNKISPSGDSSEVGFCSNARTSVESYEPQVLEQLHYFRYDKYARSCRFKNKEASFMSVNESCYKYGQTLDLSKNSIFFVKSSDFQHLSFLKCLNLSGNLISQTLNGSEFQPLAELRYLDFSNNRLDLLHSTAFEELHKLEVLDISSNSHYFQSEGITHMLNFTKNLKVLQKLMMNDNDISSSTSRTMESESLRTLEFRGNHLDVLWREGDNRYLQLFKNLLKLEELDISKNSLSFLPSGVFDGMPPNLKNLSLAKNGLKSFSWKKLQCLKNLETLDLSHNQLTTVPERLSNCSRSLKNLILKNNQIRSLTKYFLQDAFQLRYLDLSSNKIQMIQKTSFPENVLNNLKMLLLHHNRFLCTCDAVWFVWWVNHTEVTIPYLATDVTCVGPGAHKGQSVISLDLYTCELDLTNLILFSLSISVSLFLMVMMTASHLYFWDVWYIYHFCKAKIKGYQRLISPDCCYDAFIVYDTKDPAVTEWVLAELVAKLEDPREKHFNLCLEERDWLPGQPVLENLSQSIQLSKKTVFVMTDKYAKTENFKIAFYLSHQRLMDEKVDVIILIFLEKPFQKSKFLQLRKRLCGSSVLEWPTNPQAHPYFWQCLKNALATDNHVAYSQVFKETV
# Procedure, shortened: as §1
# human TLR9 = target: T3, human TLR9 (Homo sapiens, UniProt Q9NR96); assay: TLR9 inhibition reporter assay (HEK-Blue cells, SEAP reporter); conditions: HEK-Blue cells overexpressing human TLR9; stimulated with ODN2006 5 nM; 22 hour incubation; SEAP readout
# T3 sequence (Q9NR96 26-1032): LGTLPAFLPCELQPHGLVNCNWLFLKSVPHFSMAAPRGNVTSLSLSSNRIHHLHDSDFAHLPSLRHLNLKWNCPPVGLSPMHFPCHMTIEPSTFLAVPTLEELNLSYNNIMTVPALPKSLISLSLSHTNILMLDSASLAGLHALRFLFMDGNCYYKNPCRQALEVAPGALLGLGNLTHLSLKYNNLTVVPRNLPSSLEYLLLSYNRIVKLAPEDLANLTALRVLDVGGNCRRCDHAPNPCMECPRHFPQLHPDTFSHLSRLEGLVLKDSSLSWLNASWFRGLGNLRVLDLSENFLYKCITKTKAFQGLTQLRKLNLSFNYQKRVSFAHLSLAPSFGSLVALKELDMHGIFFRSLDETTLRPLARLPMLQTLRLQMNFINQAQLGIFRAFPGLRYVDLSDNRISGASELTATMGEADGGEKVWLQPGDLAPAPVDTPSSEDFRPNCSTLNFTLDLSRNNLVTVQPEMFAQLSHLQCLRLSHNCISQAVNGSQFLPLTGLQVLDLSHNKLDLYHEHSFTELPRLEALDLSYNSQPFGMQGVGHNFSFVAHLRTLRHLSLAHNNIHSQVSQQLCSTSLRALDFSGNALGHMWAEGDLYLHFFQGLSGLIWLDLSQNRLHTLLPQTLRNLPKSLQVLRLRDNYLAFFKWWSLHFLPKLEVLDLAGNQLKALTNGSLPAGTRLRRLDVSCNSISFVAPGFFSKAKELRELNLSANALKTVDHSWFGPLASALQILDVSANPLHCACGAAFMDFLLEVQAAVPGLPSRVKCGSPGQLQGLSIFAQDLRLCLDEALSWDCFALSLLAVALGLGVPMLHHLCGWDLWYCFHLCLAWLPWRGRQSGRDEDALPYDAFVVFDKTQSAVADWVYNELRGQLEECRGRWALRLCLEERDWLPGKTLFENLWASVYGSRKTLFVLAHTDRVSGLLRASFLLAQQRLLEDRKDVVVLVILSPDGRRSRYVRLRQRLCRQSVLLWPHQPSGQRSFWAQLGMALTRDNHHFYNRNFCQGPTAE
# Procedure, shortened: as §1
IC50 (human TLR8) [µM],IC50 (human TLR7) [µM],IC50 (human TLR9) [µM],Compound
> 50,> 50,0.624,"Cc1cc(-c2ccc(N3CCN(CC(C)C)CC3)cc2)cn2cc(-c3ccc(S(C)(=O)=O)cc3)nc12 [Example 99, 6-(4-(4-isobutylpiperazin-1-yl)phenyl)-8-methyl-2-(4-(methylsulfonyl)phenyl) imidazo[1,2-a]pyridine]"
14.9,13.4,0.329,"Cc1cc(-c2ccc(N3CCN(CC4CC4)CC3)cc2)cn2cc(-c3ccc(S(C)(=O)=O)cc3)nc12 [Example 100, 6-(4-(4-(cyclopropylmethyl)piperazin-1-yl)phenyl)-8-methyl-2-(4-(methylsulfonyl)phenyl) imidazo[1,2-a]pyridine]"
14,18.4,0.803,"Cc1cc(-c2ccc(N3CCN(CC4CCC4)CC3)cc2)cn2cc(-c3ccc(S(C)(=O)=O)cc3)nc12 [Example 101, 6-(4-(4-(cyclobutylmethyl)piperazin-1-yl)phenyl)-8-methyl-2-(4-(methylsulfonyl)phenyl)imidazo[1,2-a]pyridine]"
17,6.3,0.71,"Cc1cc(-c2ccc(N3CCN(C4CCC4)CC3)cc2)cn2cc(-c3ccc(S(C)(=O)=O)cc3)nc12 [Example 102, 6-(4-(4-cyclobutylpiperazin-1-yl)phenyl)-8-methyl-2-(4-(methylsulfonyl)phenyl) imidazo[1,2-a]pyridine]"
> 50,38.5,9.2,"Cc1cc(-c2ccc(N3CCN(C4COC4)CC3)cc2)cn2cc(-c3ccc(S(C)(=O)=O)cc3)nc12 [Example 103, 8-methyl-2-(4-(methylsulfonyl)phenyl)-6-(4-(4-(oxetan-3-yl)piperazin-1-yl)phenyl)imidazo[1,2-a]pyridine]"
> 50,5.1,0.451,"Cc1cc(-c2ccc(N3CCN(C4CCOCC4)CC3)cc2)cn2cc(-c3ccc(S(C)(=O)=O)cc3)nc12 [Example 104, 8-methyl-2-(4-(methylsulfonyl)phenyl)-6-(4-(4-(tetrahydro-2H-pyran-4-yl)piperazin-1-yl)phenyl)imidazo[1,2-a]pyridine]"
> 50,11,0.1,"CC(C)CN1CCC(N2CCC(c3cc(F)c4nc(-c5ccc(S(C)(=O)=O)cc5)cn4c3)CC2)CC1 [Example 107, 8-fluoro-6-(1′-isobutyl-[1,4′-bipiperidin]-4-yl)-2-(4-(methylsulfonyl)phenyl) imidazo[1,2-a]pyridine]"
> 50,29.5,0.313,"CS(=O)(=O)c1ccc(-c2cn3cc(C4CCN(C5CCN(C6CC6)CC5)CC4)cc(F)c3n2)cc1 [Example 108, 6-(1′-cyclopropyl-[1,4′-bipiperidin]-4-yl)-8-fluoro-2-(4-(methylsulfonyl)phenyl) imidazo[1,2-a]pyridine]"
> 50,1.3,0.0043,"CS(=O)(=O)c1ccc(-c2cn3cc(C4CCN(C5CCN(CC6CC6)CC5)CC4)cc(F)c3n2)cc1 [Example 109, 6-(1′-(cyclopropylmethyl)-[1,4′-bipiperidin]-4-yl)-8-fluoro-2-(4-(methylsulfonyl)phenyl)imidazo[1,2-a]pyridine]"
> 50,2.4,0.0046,"CS(=O)(=O)c1ccc(-c2cn3cc(C4CCN(C5CCN(C6CCC6)CC5)CC4)cc(F)c3n2)cc1 [Example 110, 6-(1′-cyclobutyl-[1,4′-bipiperidin]-4-yl)-8-fluoro-2-(4-(methylsulfonyl)phenyl) imidazo[1,2-a]pyridine]"
> 50,13,0.235,"CS(=O)(=O)c1ccc(-c2cn3cc(C4CCN(C5CCN(C6COC6)CC5)CC4)cc(F)c3n2)cc1 [Example 111, 8-fluoro-2-(4-(methylsulfonyl)phenyl)-6-(1′-(oxetan-3-yl)-[1,4′-bipiperidin]-4-yl)imidazo[1,2-a]pyridine]"
> 50,4.5,0.098,"CS(=O)(=O)c1ccc(-c2cn3cc(C4CCN(C5CCN(C6CCOCC6)CC5)CC4)cc(F)c3n2)cc1 [Example 112, 8-fluoro-2-(4-(methylsulfonyl)phenyl)-6-(1′-(tetrahydro-2H-pyran-4-yl)-[1,4′-bipiperidin]-4-yl)imidazo[1,2-a]pyridine]"
> 50,> 50,0.496,"CC(C)CN1CCC(N2CCC(c3cn4cc(-c5ccc(S(C)(=O)=O)cc5)nc4cc3F)CC2)CC1 [Example 123, 7-fluoro-6-(1′-isobutyl-[1,4′-bipiperidin]-4-yl)-2-(4-(methylsulfonyl)phenyl) imidazo[1,2-a]pyridine]"
16.7,18.1,0.058,"CC(C)CN1CCC(N2CCC(c3ccc4nc(-c5ccc(S(C)(=O)=O)cc5)cn4c3F)CC2)CC1 [Example 131, 5-fluoro-6-(1′-isobutyl-[1,4′-bipiperidin]-4-yl)-2-(4-(methylsulfonyl)phenyl) imidazo[1,2-a]pyridine]"
